Measured values: patent publication US20120276064A1, “METHODS AND COMPOSITIONS FOR REJUVENATION AND EXPANSION OF STEM CELLS” (priority 2011, published 2012)

Experiments:
[1] = system: tibialis anterior muscle of notexin-injured old mice; assay: In vivo force measurements after systemic SB202190 administration; design: species or system mouse; settings: 5 mg/kg IP, 5 daily injections starting one day after notexin injury, two months post-injury
Method: Systemic SB202190 administration. Old mice were systemically administered SB202190 (5 mg/kg body weight in 0.9% NaCl/H2O) with five daily doses by IP injection starting at one day after NTX injury.
In vivo force measurements. Force measurements were performed on tibialis anterior (TA) muscles in vivo in anesthetized mice, as previously described. The hindlimb was shaved and fixed to a frame to immobilize it without compromising the blood supply to the leg. The animal was warmed on an isothermal pad and by heat lamp. A small incision was placed in the skin directly above the TA muscle. The distal tendon was sutured to a thin metal hook and then attached to a force transducer (300C-LR; Aurora Scientific, Aurora, Ontario). Distal tendons from all front lower hindlimb muscles other than TA were cut, leaving TA isolated during attachment to the force transducer. The muscles and tendons were kept moist by periodic wetting with saline (0.9% sodium chloride) solution. […] Muscle force and synchronization pulses were recorded for 2 seconds immediately prior to the stimulation and 3 seconds after the end of the stimulation. […] Data were collected with a PCI-6251 data acquisition card (National Instruments, Austin, Tex.) and analyzed in Matlab. Specific force values were calculated by normalizing the force measurements by the muscle physiological cross-sectional area (PCSA), as described previously: […]

functional MuSCs = assay: Limiting dilution analysis and model prediction of functional MuSCs; design: species or system mouse
Source text: Limiting dilution analysis and model prediction. To calculate the effective number of functional MuSCs in any transplanted cell population, the transplant engraftment efficiency was related to the number of cells transplanted (across a range of transplanted cell numbers) using an exponential stem-cell limiting dilution model:
% engraftment=100%·[1-exp [(βsample)·(# cells transplantedsample)] [eqn. 1]
where β is an exponential coefficient fit from experimental data. This model fit well to experimental data from a variety of cell conditions (R^2=0.89-1.00; see FIG. 16C). Using this model, the number of functional MuSCs (e.g. defined as equivalent to freshly isolated young MuSCs) within any given population can be calculated:
# Functional MuSCssample=(βSample/βYng,Fresh)˜(# cellssample). [eqn. 2]
The number of functional MuSCs arising from the progeny of each MuSC initially seeded in the cell culture experiments can be predicted by taking into account the measured cell proliferation in culture (see FIG. 2D). The transplant engraftment percentage of the cell culture progeny from any starting MuSC cell number can be predicted using the measured cell proliferation data and the fit exponential model parameter β:
Predicted % engraftment=100%·[1-exp [(βsample)·(starting cell #)·(proliferation fold-changesample)]]. [Eqn. 3]

[2] = system: p38 signaling (phosphorylation of the p38 substrate MK2); assay: Phospho-MK2 flow cytometry in primary myoblasts stimulated with anisomycin and TNF; type: cell-based; settings: primary mouse myoblasts, 10 μM pretreatment one hour, anisomycin 1 μg/ml + TNF 50 ng/ml 30 min
Method: Phospho-MK2 flow cytometry. To analyze p38 signaling, the phosphorylation of MK2, a readout of p38 kinase activity, was assayed by flow cytometry. Primary mouse myoblasts were isolated as previously described. Myoblasts were cultured on collagen-coated tissue-culture plastic dishes in myogenic cell medium and were maintained at 37° C. in 5% CO2. Myoblasts were pretreated with 0.1% DMSO carrier control or 10 μM SB202190 for one-hour and then were stimulated with anisomycin (1 μg/ml; Sigma) and TNF (50 ng/ml; R&D Systems, Minneapolis, Minn.) for 30 minutes or mock buffer (PBS). Pretreatments and stimuli were added in 50× spike solutions. After 15 minutes, cells were collected from hydrogel cultures by incubation 0.5% trypsin in PBS for 2 min at 37° C. Cells were fixed with 1.5% paraformaldehyde in PBS, permeabilized in methanol at −80° C., and stained with an AlexFluor488-conjugated antibody reactive to the phosphorylated (Thr334) form of MK2 (Cell Signaling). Cells were analyzed for phospho-MK2 positivity on a modified FACStar Plus flow cytometer using FACS Diva software (BD Biosciences).

For Oc1ccc(-c2nc(-c3ccncc3)c(-c3ccc(F)cc3)[nH]2)cc1 [SB202190], the “Recovery of twitch and tetanus forces” value [1] was “aided recovery”, the “Proportion of functional MuSCs” value (functional MuSCs; old MuSCs on soft hydrogels with SB treatment, limiting dilution model) was 9% and the “Predicted transplant engraftment of the culture progeny of 10 old MuSCs” value (functional MuSCs; old MuSCs treated with SB, model prediction) was 76%. For the same compound, the “Increase in absolute number of functional stem cells relative to freshly isolated old MuSCs” value (functional MuSCs; old MuSCs, soft hydrogel + SB, one week, mathematical modeling) was 7 fold, the “Improvement in the proportion of functional MuSCs” value (functional MuSCs; old MuSCs, soft hydrogel with vs without SB, limiting dilution model) was 10 fold and the “p38 signaling activity / MK2 phosphorylation” value [2] was “prevents MK2 phosphorylation”. For the same compound, the “p38 signaling activity / MK2 phosphorylation” value ([2]; listed as SB) was “substantially attenuated p38 signaling activity”.
